Results taken from patent US9416099B2 (priority 2010, dated 2016).
Values joined by “and” are separate entries in the source; they are usually repeats but may differ in a detail not shown here. Identical values can stand only once.

Legend:
[1] = type: physicochemical
Pseudomonas aeruginosa = type: cell-based
[2] = test system: Pseudomonas aeruginosa and Staphylococcus aureas; type: cell-based
Staphylococcus aureas = type: cell-based

Molecule: CCCC(CCCCCCCC(=O)NCCC[N+](C)(C)CC(=O)[O-])S(=O)(=O)[O-].[Na+] (stereo not drawn) [C12-23, C12 DMAPA Betaine Sulfonate]
- % Separation 1 h [1]: 3%
- % Separation 24 h [1]: 3.5% and 3%
- Adjuvant 1 h, mL separation: 0 mL
- Anionic 1 h, mL separation: 0 mL
- Adjuvant 24 h, mL separation: 0 mL
- Anionic 24 h, mL separation: 0 mL
- Nonionic 24 h, mL separation: 0.25 mL

Molecule: C[N+](C)(C)CCCNC(=O)CCCCCCCCC(CCCCCCCC(=O)NCCC[N+](C)(C)C)S(=O)(=O)O.[Na+] (stereo not drawn) [C18-28, C18 DiDMAPA DiQuat Sulfonate]
- % Separation 1 h [1]: 4% and 3.4%
- % Separation 24 h [1]: 4.5% and 3.9%
- Adjuvant 1 h, mL separation: 0 mL
- Anionic 1 h, mL separation: 0 mL
- Adjuvant 24 h, mL separation: 0 mL
- Anionic 24 h, mL separation: 0 mL

Molecule: C[N+](C)(CCCNC(=O)CCCCCCCCC(CCCCCCCC(=O)NCCC[N+](C)(C)CC(=O)[O-])S(=O)(=O)[O-])CC(=O)[O-].[Na+] (stereo not drawn) [C18-33, C18 DiBetaine Sulfonate]
- % Separation 1 h [1]: 4% and 3%
- % Separation 24 h [1]: 4.5% and 3.4%
- Adjuvant 1 h, mL separation: 0 mL
- Anionic 1 h, mL separation: 0 mL
- Nonionic 1 h, mL separation: 1 mL
- Adjuvant 24 h, mL separation: 0 mL
- Anionic 24 h, mL separation: 0 mL
- Nonionic 24 h, mL separation: 1 mL

Molecule: C[N+](C)(C)CCCNC(=O)CCCCCCC/C=C/CCCCCCCC(=O)NCCC[N+](C)(C)C [Mix-27, C18 DiDMAPA DiQuat]
- % Kill, Pseudomonas aeruginosa, 400 ppm (Pseudomonas aeruginosa): 23.2%
- % Kill, Pseudomonas aeruginosa, DI water (Pseudomonas aeruginosa): 52.4%
- Overall Rating [2]: good
- % Kill, Staphylococcus aureas, 400 ppm (Staphylococcus aureas): 23.2%
- % Kill, Staphylococcus aureas, DI water (Staphylococcus aureas): 56.1%
- Adjuvant 1 h, mL separation: 0 mL
- Anionic 1 h, mL separation: 0 mL
- Nonionic 1 h, mL separation: 0 mL
- Adjuvant 24 h, mL separation: 0 mL
- Anionic 24 h, mL separation: 0 mL
- Nonionic 24 h, mL separation: 0 mL

Molecule: C[N+](C)(C)CCCNC(=O)CCCCCCC/C=C/CCCCCCCC(=O)NCCC[N+](C)(C)[O-] [Mix-35, C18 DiDMAPA Quat AO]
- % Kill, Pseudomonas aeruginosa, 400 ppm (Pseudomonas aeruginosa): 22.1%
- % Kill, Pseudomonas aeruginosa, DI water (Pseudomonas aeruginosa): 31.4%
- Overall Rating [2]: good
- % Kill, Staphylococcus aureas, 400 ppm (Staphylococcus aureas): 20.9%
- % Kill, Staphylococcus aureas, DI water (Staphylococcus aureas): 55.6%
- Adjuvant 1 h, mL separation: 0 mL
- Anionic 1 h, mL separation: 0 mL
- Nonionic 1 h, mL separation: 5 mL
- Adjuvant 24 h, mL separation: 0 mL
- Anionic 24 h, mL separation: 0 mL
- Nonionic 24 h, mL separation: 1 mL

Molecule: calcium alkylbenzenesulfonate [Control 1, reference compound]
- % Separation 1 h [1]: <0.2%
- % Separation 24 h [1]: 1.3%
